Consider 25 compounds from patent US20240315993A1, “ANTIPARASITIC COMPOUNDS” (Intervet Inc., priority 2021, published 2024).

One data set deals with Lepeophtheirus salmonis. Description: Salmon - in vivo efficacy against sea lice using gavage administration. The following applies: 5 mg/kg once by gavage; for therapeutic efficacy against juvenile sea lice (% reduction vs control): day -3 infestation; for therapeutic efficacy against juvenile sea lice (% reduction vs control) / prophylactic efficacy at re-infestation on Day 17 (% reduction vs control): counted around day 28; for therapeutic efficacy against (pre-)adult sea lice (% reduction vs control): day -28 infestation, counted day 7. The protocol: Salmon (Salmo solar) were treated once orally by gavage at a dose of 5 mg/kg bodyweight per fish (Day 0). As formulation DMSO 5%/fish oil 95% was used. Salmon of the negative control group received only the excipients of the formulation.
The fish were infested with Lepeophtheirus salmonis copepodids twice before treatment (i.e., around day −28 and day −3) and once after treatment (i.e., day 17).
Around day 28 (end of animal phase), fish were euthanized, and lice on each fish were classified ((pre-)adult or juvenile stage) and counted. […] Efficacy is expressed as a % reduction of sea lice in treated groups versus a control group, using the Abbott's formula.

In data set [1] the test system is Copepodids (juvenile sea lice stage of Lepeophtheirus salmonis). Description: Juvenile sea lice contact assay. The conditions noted are these: 1 nM in seawater; ~24 h. The protocol:
Copepodids (juvenile sea lice stage of Lepeophtheirus salmonis) were exposed to seawater spiked with declining concentrations of a test compound (dissolved in a DMSO sea-water mixture). Sea lice inhibition (% of dead+damaged copepodids) was assessed after approximately 24 hours of continuous exposure. The vitality of used parasites was confirmed in a negative (solvent) control group.

Data set [2] has as its system Beet Armyworm (Spodoptera exigua). The following applies: 128-well diet tray, average of eight wells, cited from earlier work; for Test A: Bioassay on BAW, percent mortality rating: Beet Armyworm second instar larvae, 50 μg/cm^2, five to seven days; for Test A: percent mortality of Beet Armyworm (BAW) larvae, rating: 50 μg/cm^2 on artificial diet, second instar larvae, 5-7 days.

Data set [3] deals with Cabbage Looper (Trichoplusia ni). The following applies: 128-well diet tray, average of eight wells, cited from earlier work; for Test B: Bioassay on CL, percent mortality rating: Cabbage Looper second instar larvae, 50 μg/cm^2, five to seven days; for Test B: percent mortality of Cabbage Looper (CL) larvae, rating: 50 μg/cm^2 on artificial diet, second instar larvae, 5-7 days.

The subject of data set [4] is Yellow Fever Mosquito (Aedes aegypti). The conditions noted are these: 96-well plate, cited from earlier work; for Test C: Bioassay on Yellow Fever Mosquito, mortality rating: Aedes aegypti larvae about 1 day old, scored after 3 days; for Test C: mortality of Yellow Fever Mosquito larvae, rating: about 1 day-old larvae, graded after 3 days at room temperature.

Turning to `Cc1c(F)cc(NC(=O)C2C(c3cc(Cl)cc(Cl)c3)C2(Cl)Cl)cc1C(=O)Nc1ncc(F)cc1F` (centres unmarked) [Compound 457], in the data set on Lepeophtheirus salmonis, the “therapeutic efficacy against juvenile sea lice (% reduction vs control)” value is reported as 100% and the “therapeutic efficacy against (pre-)adult sea lice (% reduction vs control)” value is reported as 80%.

For the compound `O=C(Nc1c(F)cccc1F)c1cc(NC(=O)C2C(c3cc(Cl)cc(Cl)c3)C2(Cl)Cl)ccc1Cl` (centres unmarked) [Compound 458], in the data set on Lepeophtheirus salmonis, the “prophylactic efficacy at re-infestation on Day 17 (% reduction vs control)” value amounted to 80%, the “therapeutic efficacy against juvenile sea lice (% reduction vs control)” value was 100% and the “therapeutic efficacy against (pre-)adult sea lice (% reduction vs control)” value is listed as 100%.

As for `O=C(Nc1ncc(F)cc1F)c1cc(NC(=O)C2C(c3cc(Cl)cc(Cl)c3)C2(Cl)Cl)ccc1F` (centres unmarked) [Compound 463], the “Sea lice inhibition (% of dead+damaged copepodids)” value in data set [1] amounted to 100%. In addition, in the data set with Lepeophtheirus salmonis, the “therapeutic efficacy against juvenile sea lice (% reduction vs control)” value came to 100% and the “therapeutic efficacy against (pre-)adult sea lice (% reduction vs control)” value came out at 100%.

With `O=C(Nc1ncc(F)cc1F)c1cc(NC(=O)C2C(c3cc(Cl)cc(Cl)c3)C2(Cl)Cl)cc(F)c1Cl` (centres unmarked) [Compound 464], in the data set on Lepeophtheirus salmonis, the “prophylactic efficacy at re-infestation on Day 17 (% reduction vs control)” value is on record as 100%, the “therapeutic efficacy against juvenile sea lice (% reduction vs control)” value was determined as 100% and the “therapeutic efficacy against (pre-)adult sea lice (% reduction vs control)” value was 100%.

Regarding `O=C(Nc1ncc(F)cc1F)c1cc(NC(=O)C2C(c3cc(F)c(F)c(F)c3)C2(Cl)Cl)ccc1Cl` (centres unmarked) [Compound 478], in the data set with Lepeophtheirus salmonis, the “therapeutic efficacy against juvenile sea lice (% reduction vs control)” value turned out to be 80% and the “therapeutic efficacy against (pre-)adult sea lice (% reduction vs control)” value came out at 100%.

Take `O=C(Nc1ncc(F)cc1F)c1cc(NC(=O)C2C(c3cc(F)c(F)c(F)c3)C2(Cl)Cl)ccc1F` (centres unmarked) [Compound 479]: in the data set on Lepeophtheirus salmonis, the “therapeutic efficacy against juvenile sea lice (% reduction vs control)” value worked out at 80% and the “therapeutic efficacy against (pre-)adult sea lice (% reduction vs control)” value worked out at 100%.

On to `O=C(Nc1ncc(F)cc1F)c1c(F)ccc(NC(=O)C2C(c3cc(Cl)cc(Cl)c3)C2(Cl)Cl)c1F` (centres unmarked) [Compound 480], for which, in the data set with Lepeophtheirus salmonis, the “therapeutic efficacy against juvenile sea lice (% reduction vs control)” value is 100% and the “therapeutic efficacy against (pre-)adult sea lice (% reduction vs control)” value came to 100%.

Turning to `O=C(Nc1cncc([N+](=O)[O-])c1)c1cc(NC(=O)C2C(c3cc(Cl)cc(Cl)c3)C2(Cl)Cl)ccc1Cl` (centres unmarked) [c106], in data set [2], the “Test A: Bioassay on BAW, percent mortality rating” value was “A (50-100)”. Also, the “Test B: Bioassay on CL, percent mortality rating” value (“Test B … percent mortality rating” below) in data set [3] is recorded as “A (50-100)”. Further, the “Test C: Bioassay on Yellow Fever Mosquito, mortality rating” value (shortened to “Test C: Bioassay”) in data set [4] is “A (80-100)”.

`O=C(Nc1cncc([N+](=O)[O-])c1)c1cc(NC(=O)C2C(c3ccc(Cl)c(Cl)c3)C2(Cl)Cl)ccc1Cl` (centres unmarked) [c107]: the “Test A: Bioassay on BAW, percent mortality rating” value in data set [2] is “A (50-100)”. Moreover, the “Test B … percent mortality rating” value in data set [3] is “A (50-100)”. In addition, the “Test C: Bioassay” value in data set [4] is reported as “A (80-100)”.

With `O=C(Nc1cncc(NO)c1)c1cc(NC(=O)C2C(c3cc(Cl)cc(Cl)c3)C2(Cl)Cl)ccc1Cl` (centres unmarked) [c108], the “Test A: Bioassay on BAW, percent mortality rating” value in data set [2] is listed as “A (50-100)”. For the same compound, in data set [3], the “Test B … percent mortality rating” value is “A (50-100)”. Further, the “Test C: Bioassay” value in data set [4] is on record as “A (80-100)”.

In the case of `Nc1cncc(NC(=O)c2cc(NC(=O)C3C(c4cc(Cl)cc(Cl)c4)C3(Cl)Cl)ccc2Cl)c1` (centres unmarked) [c109], the “Test A: Bioassay on BAW, percent mortality rating” value in data set [2] is given as “A (50-100)”. Further, in data set [3], the “Test B … percent mortality rating” value was “A (50-100)”. In data set [4], the “Test C: Bioassay” value is listed as “A (80-100)”.

Consider `O=C(Nc1cncc(NO)c1)c1cc(NC(=O)C2C(c3ccc(Cl)c(Cl)c3)C2(Cl)Cl)ccc1Cl` (centres unmarked) [c110], for which the “Test A: Bioassay on BAW, percent mortality rating” value in data set [2] is recorded as “A (50-100)”. In addition, in data set [3], the “Test B … percent mortality rating” value is recorded as “A (50-100)”. Further, the “Test C: Bioassay” value in data set [4] is reported as “A (80-100)”.

In the case of `Nc1cncc(NC(=O)c2cc(NC(=O)C3C(c4ccc(Cl)c(Cl)c4)C3(Cl)Cl)ccc2Cl)c1` (centres unmarked) [c111], the “Test A: Bioassay on BAW, percent mortality rating” value in data set [2] is reported as “A (50-100)”. The “Test B … percent mortality rating” value in data set [3] was “A (50-100)”. Also, the “Test C: Bioassay” value in data set [4] is reported as “A (80-100)”.

With `Cn1ccc2c(NC(=O)c3cc(NC(=O)C4C(c5cc(Cl)cc(Cl)c5)C4(Cl)Cl)ccc3Cl)cccc21` (centres unmarked) [c112], the “Test A: Bioassay on BAW, percent mortality rating” value in data set [2] is reported as “A (50-100)”. The “Test B … percent mortality rating” value in data set [3] is “A (50-100)”. The “Test C: Bioassay” value in data set [4] is recorded as “A (80-100)”.

As to `Cn1ccc2cccc(NC(=O)c3cc(NC(=O)C4C(c5cc(Cl)cc(Cl)c5)C4(Cl)Cl)ccc3Cl)c21` (centres unmarked) [c113], the “Test A: Bioassay on BAW, percent mortality rating” value in data set [2] is “A (50-100)”. The “Test B … percent mortality rating” value in data set [3] is “A (50-100)”. Further, the “Test C: Bioassay” value in data set [4] is given as “A (80-100)”.

On to `Cc1cc(N)ccc1NC(=O)c1cc(NC(=O)C2C(c3ccc(Cl)c(Cl)c3)C2(Cl)Cl)ccc1Cl` (centres unmarked) [c114], for which, in data set [2], the “Test A: Bioassay on BAW, percent mortality rating” value is recorded as “A (50-100)”. Moreover, in data set [3], the “Test B … percent mortality rating” value is given as “A (50-100)”. The “Test C: Bioassay” value in data set [4] is “A (80-100)”.

As to `COCC(=O)N(C)c1ccc(NC(=O)c2cc(NC(=O)C3C(c4cc(Cl)cc(Cl)c4)C3(Cl)Cl)ccc2Cl)cc1` (centres unmarked) [c115], in data set [2], the “Test A: percent mortality of Beet Armyworm (BAW) larvae, rating” value (“Test A: percent mortality” below) is “A (50-100)”. Further, the “Test B: percent mortality of Cabbage Looper (CL) larvae, rating” value (shortened to “Test B: percent mortality”) in data set [3] is reported as “A (50-100)”. In addition, in data set [4], the “Test C: mortality of Yellow Fever Mosquito larvae, rating” value (“Test C: mortality” for short) is “B (More than 0 - Less than 80)”.

Take `CNc1ccc(NC(=O)c2cc(NC(=O)C3C(c4cc(Cl)cc(Cl)c4)C3(Cl)Cl)ccc2Cl)cc1C` (centres unmarked) [c116]: the “Test A: percent mortality” value in data set [2] is on record as “A (50-100)”. Moreover, the “Test B: percent mortality” value in data set [3] is “A (50-100)”. Besides, the “Test C: mortality” value in data set [4] is “A (80-100)”.

In the case of `CC(=O)Nc1ccc(NC(=O)c2cc(NC(=O)C3C(c4ccc(F)c(Cl)c4)C3(Cl)Cl)ccc2Cl)cc1` (centres unmarked) [c117], the “Test A: percent mortality” value in data set [2] is “A (50-100)”. Moreover, in data set [3], the “Test B: percent mortality” value is “A (50-100)”. Also, in data set [4], the “Test C: mortality” value is on record as “A (80-100)”.

For `CC(=O)Nc1ccc(NC(=O)c2cc(NC(=O)[C@H]3[C@H](c4ccc(F)c(Cl)c4)C3(Cl)Cl)cc(Cl)c2C)cc1` [c118], the “Test A: percent mortality” value in data set [2] was “A (50-100)”. For the same compound, in data set [3], the “Test B: percent mortality” value is “A (50-100)”. Besides, in data set [4], the “Test C: mortality” value is on record as “A (80-100)”.

Take `O=C(Nc1ccccc1)c1cc(NC(=O)[C@H]2[C@H](c3ccc(F)c(Cl)c3)C2(Cl)Cl)cc(C(F)(F)F)c1Cl` [c121]: in data set [2], the “Test A: percent mortality” value is listed as “A (50-100)”. Besides, the “Test B: percent mortality” value in data set [3] is “A (50-100)”. In data set [4], the “Test C: mortality” value is “A (80-100)”.

For the compound `O=C(Nc1ccccc1)c1c(Cl)ccc(NC(=O)[C@H]2[C@H](c3ccc(F)c(Cl)c3)C2(Cl)Cl)c1Cl` [c122], the “Test A: percent mortality” value in data set [2] is on record as “A (50-100)”. Further, in data set [3], the “Test B: percent mortality” value is recorded as “A (50-100)”. Moreover, in data set [4], the “Test C: mortality” value is “A (80-100)”.

For the compound `Cc1c(N)ccc(NC(=O)c2cc(NC(=O)C3C(c4ccc(F)c(C(F)(F)F)c4)C3(Cl)Cl)ccc2Cl)c1C` (centres unmarked) [c123], the “Test A: percent mortality” value in data set [2] is on record as “A (50-100)”. The “Test B: percent mortality” value in data set [3] is recorded as “A (50-100)”. The “Test C: mortality” value in data set [4] is recorded as “A (80-100)”.

With `Cc1c(NC(=O)c2cc(NC(=O)C3C(c4ccc(F)c(C(F)(F)F)c4)C3(Cl)Cl)ccc2Cl)ccc(NC(=O)C(F)(F)F)c1C` (centres unmarked) [c124], in data set [2], the “Test A: percent mortality” value is listed as “A (50-100)”. Moreover, the “Test B: percent mortality” value in data set [3] is “A (50-100)”. Further, the “Test C: mortality” value in data set [4] was “A (80-100)”.

As for `Cc1c(NC(=O)c2cc(NC(=O)C3C(c4ccc(F)c(C(F)(F)F)c4)C3(Cl)Cl)ccc2Cl)cccc1NC(=O)C(F)(F)F` (centres unmarked) [c125], the “Test A: percent mortality” value in data set [2] is recorded as “A (50-100)”. Also, in data set [3], the “Test B: percent mortality” value is “A (50-100)”. Besides, in data set [4], the “Test C: mortality” value is “A (80-100)”.
